Measured values published in US20240360165A1, “INHIBITORS OF CYCLIN DEPENDENT KINASE 7 (CDK7)” (Syros Pharmaceuticals, Inc., priority 2016, published 2024).
Read-outs that look alike come from different tables or passages of the source.

How the values were obtained:
[1] = target: CDK7/Cyclin H/MAT1 complex (Homo sapiens, UniProt P50613); test: CDK7 inhibition assay (Caliper/LabChip EZ Reader kinase assay); type: biochemical; conditions: Table 1, CDK7/Cyclin H/MAT1 6 nM, ATP 2 mM, 35 min at 27° C.
In short: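 A Perkin Elmer Caliper/LabChip EZ Reader (Waltham, MA) platform served as the basis for this CDK7 kinase inhibition assay. The work was carried out by Biortus Biosciences, located in Jiangyin, Jiangsu Province, P.R. of China. Each CDK studied had its own kinase assay, and compounds were evaluated for their ability to block CDK7 activity.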

[2] = target: T1, CDK12 (aa686-1082)/Cyclin K complex (Homo sapiens, UniProt Q9NYV4); test: CDK12 inhibition assay (Caliper/LabChip EZ Reader kinase assay); type: biochemical; conditions: Table 1, CDK12 (aa686-1082)/Cyclin K 50 nM, ATP 2 mM, 3 hr at 27° C.
T1 construct: CDK12 (aa686-1082)/Cyclin K complex

[3] = tested on: HCC70 cells; test: Inhibition of proliferation of HCC70 cells (CyQUANT Direct Cell Proliferation Assay, 72 hour); type: cell-based, human; conditions: Homo sapiens, HCC70, 72 h, read-out: Inhibition of Proliferation of HCC70 Cells (calculated IC50)
In short: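 Human triple-negative breast cancer HCC70 cells cultured at 37° C, 5% CO2, with compound for 72 hour. Anti-proliferative effect read by CyQUANT Direct Cell Proliferation Assay. Dinaciclib, a CDK inhibitor analog and triptolide served as positive controls.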

[4] = target: CDK9/Cyclin T1 complex (Homo sapiens, UniProt P50750); test: CDK9 inhibition assay (Caliper/LabChip EZ Reader kinase assay); type: biochemical; conditions: Table 1, CDK9/Cyclin T1 8 nM, ATP 2 mM, 15 min at 27° C.
In short: (§1)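 Caliper/LabChip EZ Reader mobility-shift assays. CDK9/Cyclin T1 at 8 nM with 2 μM 5-FAM-CDK9tide peptide and 10 mM MgCl2; CDK2/Cyclin E1 at 0.5 nM with 2 μM 5-FAM-CDK7tide and 2 mM MgCl2.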

[5] = tested on: A673 cells; test: Inhibition of proliferation of A673 cells (CyQUANT, 72 hour); type: cell-based, human; conditions: A673 cells, 72 hour, CyQUANT, read-out: Inhibition of Proliferation of A673 Cells (calculated IC50)
In short: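 Human Ewing's sarcoma A673 cells in DMEM with 10% FBS and 1 mM sodium pyruvate, 37° C, 5% CO2, treated 72 h with compound from 4 μM to […] (0.5 log dilutions). Antiproliferative effect read by CyQUANT assay.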

[6] = target: CDK2/Cyclin E1 complex (Homo sapiens, UniProt P24941); test: CDK2 inhibition assay (Caliper/LabChip EZ Reader kinase assay); type: biochemical; conditions: Table 1, CDK2/Cyclin E1 0.5 nM, ATP 2 mM, 35 min at 27° C.
In short: as §1

CDK9/Cyclin T1 complex, sequence (P50750 whole entry, species assumed): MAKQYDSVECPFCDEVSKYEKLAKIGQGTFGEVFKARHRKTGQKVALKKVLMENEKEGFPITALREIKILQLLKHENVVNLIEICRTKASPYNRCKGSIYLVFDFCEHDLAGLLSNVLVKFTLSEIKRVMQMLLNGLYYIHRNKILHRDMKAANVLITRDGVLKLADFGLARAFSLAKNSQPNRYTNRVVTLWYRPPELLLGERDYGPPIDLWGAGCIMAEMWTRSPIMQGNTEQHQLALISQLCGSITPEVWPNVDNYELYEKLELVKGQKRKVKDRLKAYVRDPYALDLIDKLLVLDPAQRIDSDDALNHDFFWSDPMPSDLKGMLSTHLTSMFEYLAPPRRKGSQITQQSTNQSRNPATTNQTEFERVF
CDK9/Cyclin T1 complex, sequence (O60563 whole entry partner, species assumed): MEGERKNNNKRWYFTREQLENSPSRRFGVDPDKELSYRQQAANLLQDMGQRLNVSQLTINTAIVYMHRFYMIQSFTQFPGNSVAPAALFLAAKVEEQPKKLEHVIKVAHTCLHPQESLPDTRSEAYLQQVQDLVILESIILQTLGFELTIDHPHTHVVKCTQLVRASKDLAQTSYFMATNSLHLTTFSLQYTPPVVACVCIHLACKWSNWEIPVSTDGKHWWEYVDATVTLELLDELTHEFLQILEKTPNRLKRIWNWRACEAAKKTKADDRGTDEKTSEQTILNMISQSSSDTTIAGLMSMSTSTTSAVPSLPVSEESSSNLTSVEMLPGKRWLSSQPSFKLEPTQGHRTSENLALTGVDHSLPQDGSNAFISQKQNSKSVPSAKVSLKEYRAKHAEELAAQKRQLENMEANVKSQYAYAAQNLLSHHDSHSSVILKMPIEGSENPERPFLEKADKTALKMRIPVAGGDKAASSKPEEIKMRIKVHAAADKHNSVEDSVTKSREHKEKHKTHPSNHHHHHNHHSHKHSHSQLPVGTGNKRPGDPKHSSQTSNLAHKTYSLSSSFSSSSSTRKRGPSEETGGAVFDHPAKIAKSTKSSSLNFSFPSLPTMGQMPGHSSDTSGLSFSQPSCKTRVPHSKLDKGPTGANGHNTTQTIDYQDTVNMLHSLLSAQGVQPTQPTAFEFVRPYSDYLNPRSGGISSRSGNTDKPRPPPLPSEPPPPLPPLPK
T1 sequence (Q9NYV4 686-1082, species assumed): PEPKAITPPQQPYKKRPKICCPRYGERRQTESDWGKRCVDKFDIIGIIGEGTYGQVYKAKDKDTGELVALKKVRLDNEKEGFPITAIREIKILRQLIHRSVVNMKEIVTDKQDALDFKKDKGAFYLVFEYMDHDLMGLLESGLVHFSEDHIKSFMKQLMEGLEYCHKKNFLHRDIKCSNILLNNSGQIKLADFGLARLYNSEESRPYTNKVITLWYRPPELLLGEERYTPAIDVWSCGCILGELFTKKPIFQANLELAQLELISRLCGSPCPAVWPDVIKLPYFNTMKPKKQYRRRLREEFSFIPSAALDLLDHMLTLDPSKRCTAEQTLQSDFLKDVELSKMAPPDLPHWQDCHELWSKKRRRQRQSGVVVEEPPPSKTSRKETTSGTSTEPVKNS
T1 sequence (O75909 whole entry partner, species assumed, the tested form may be a part): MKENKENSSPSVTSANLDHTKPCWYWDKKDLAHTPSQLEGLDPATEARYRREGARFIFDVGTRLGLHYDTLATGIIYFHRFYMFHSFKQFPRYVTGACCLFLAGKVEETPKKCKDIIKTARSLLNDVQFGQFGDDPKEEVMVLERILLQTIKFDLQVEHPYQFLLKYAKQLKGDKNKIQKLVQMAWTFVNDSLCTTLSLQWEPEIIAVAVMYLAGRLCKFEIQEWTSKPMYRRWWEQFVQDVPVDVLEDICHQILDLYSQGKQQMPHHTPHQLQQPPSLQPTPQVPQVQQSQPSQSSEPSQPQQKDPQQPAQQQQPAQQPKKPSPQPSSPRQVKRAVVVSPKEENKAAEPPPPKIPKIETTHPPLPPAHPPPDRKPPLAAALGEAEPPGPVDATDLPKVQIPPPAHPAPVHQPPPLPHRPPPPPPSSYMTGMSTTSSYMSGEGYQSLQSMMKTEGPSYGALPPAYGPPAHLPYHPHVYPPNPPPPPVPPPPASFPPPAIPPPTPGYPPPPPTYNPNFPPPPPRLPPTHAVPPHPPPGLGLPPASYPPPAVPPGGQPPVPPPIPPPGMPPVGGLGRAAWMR
CDK7/Cyclin H/MAT1 complex, sequence (P50613 whole entry, species assumed): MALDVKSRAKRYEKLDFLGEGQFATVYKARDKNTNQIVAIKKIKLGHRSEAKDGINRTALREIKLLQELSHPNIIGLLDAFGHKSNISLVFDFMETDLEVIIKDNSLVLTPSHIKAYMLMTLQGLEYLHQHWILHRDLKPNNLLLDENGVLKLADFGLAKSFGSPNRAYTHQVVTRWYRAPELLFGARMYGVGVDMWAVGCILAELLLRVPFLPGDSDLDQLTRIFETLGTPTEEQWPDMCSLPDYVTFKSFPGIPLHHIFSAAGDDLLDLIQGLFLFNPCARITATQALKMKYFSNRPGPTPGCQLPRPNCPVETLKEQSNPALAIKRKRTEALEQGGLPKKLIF
CDK7/Cyclin H/MAT1 complex, sequence (P51946 whole entry partner, species assumed): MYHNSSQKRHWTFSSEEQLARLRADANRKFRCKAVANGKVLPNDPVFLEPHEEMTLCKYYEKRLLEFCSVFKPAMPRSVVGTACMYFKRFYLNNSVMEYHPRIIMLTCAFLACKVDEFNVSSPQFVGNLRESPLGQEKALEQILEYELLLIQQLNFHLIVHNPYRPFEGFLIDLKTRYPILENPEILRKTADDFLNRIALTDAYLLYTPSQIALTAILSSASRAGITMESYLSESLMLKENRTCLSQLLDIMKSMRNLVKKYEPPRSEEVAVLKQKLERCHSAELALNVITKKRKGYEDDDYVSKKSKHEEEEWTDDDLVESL
CDK7/Cyclin H/MAT1 complex, sequence (P51948 whole entry partner, species assumed): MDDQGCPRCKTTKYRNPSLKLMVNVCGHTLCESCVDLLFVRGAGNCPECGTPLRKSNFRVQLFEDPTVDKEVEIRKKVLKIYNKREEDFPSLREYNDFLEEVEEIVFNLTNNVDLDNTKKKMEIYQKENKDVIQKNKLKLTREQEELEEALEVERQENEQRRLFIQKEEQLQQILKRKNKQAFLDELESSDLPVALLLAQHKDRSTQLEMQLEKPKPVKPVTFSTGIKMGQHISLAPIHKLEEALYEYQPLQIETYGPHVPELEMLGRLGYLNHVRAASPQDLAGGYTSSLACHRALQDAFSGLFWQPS

For C[C@H]1CCNC[C@H]1Nc1ncc(C(F)(F)F)c(-c2c[nH]c3ccccc23)n1 [Compound 285], the IC50 [1] was 200 to 5000 nM, the IC50 [2] was > 5000 nM and the IC50 [3] was < 100 nM. The IC50 [4] was > 5000 nM, the IC50 ([5]; Homo sapiens, A673, 72 h) was < 20 nM and the IC50 [6] was > 5000 nM.

With O=C(c1cccc(-c2ccc3c(-c4nc(N[C@H]5CCCNC5)ncc4C(F)(F)F)c[nH]c3c2)c1)N1CCCC1 [Compound 340, [3-[3-[2-[[(3S)-3-piperidyl]amino]-5-(trifluoromethyl)pyrimidin-4-yl]-1H-indol-6-yl]phenyl]-pyrrolidin-1-yl-methanone] the IC50 [1] was 20 to 200 nM, the IC50 [2] was 200 to 5000 nM and the IC50 ([2]; listed as 140) was > 5000 nM. The IC50 [3] was 1000 to 5000 nM, the IC50 [4] was 200 to 5000 nM and the IC50 ([4]; listed as 140) was > 5000 nM. For the same molecule, the IC50 [5] was 200 to 5000 nM, the IC50 [6] was 200 to 5000 nM and the IC50 ([6]; listed as 140) was > 5000 nM.

With CCS(=O)(=O)c1cccc2c(-c3nc(N[C@H]4CCCNC4)ncc3C(F)(F)F)c[nH]c12 [Compound 286] the IC50 [1] was < 20 nM, the IC50 [2] was 200 to 5000 nM and the IC50 [3] was 1000 to 5000 nM. It also gave an IC50 [4] of 200 to 5000 nM, an IC50 ([5]; Homo sapiens, A673, 72 h) of 200 to 5000 nM and an IC50 [6] of 200 to 5000 nM.

In the case of O=C(O)c1ccc2c(-c3nc(N[C@H]4CCCNC4)ncc3C(F)(F)F)c[nH]c2c1 [Compound 306, 3-[2-[[(3S)-3-piperidyl]amino]-5-(trifluoromethyl)pyrimidin-4-yl]-1H-indole-6-Carboxylic acid], the IC50 [1] is reported as 20 to 200 nM, the IC50 ([1]; listed as 114) is reported as 20 to 200 nM and the IC50 [2] is reported as 200 to 5000 nM. For the same molecule, the IC50 ([2]; listed as 114) was 200 to 5000 nM, the IC50 [3] was 100 to 1000 nM and the IC50 [4] was > 5000 nM. The IC50 ([4]; listed as 114) was 200 to 5000 nM, the IC50 [5] was 20 to 200 nM and the IC50 [6] was 200 to 5000 nM. It also gave an IC50 ([6]; listed as 114) of 200 to 5000 nM.

CCc1cnc(N[C@H]2CCCNC2)nc1-c1c[nH]c2c(S(C)(=O)=O)c(C#N)ccc12 [Compound 263, 3-[5-ethyl-2-[[(3S)-3-piperidyl]amino]pyrimidin-4-yl]-7-methylsulfonyl-1H-indole-6-carbonitrile] was tested, and the IC50 [1] was < 20 nM, the IC50 [2] was > 5000 nM and the IC50 [3] was 100 to 1000 nM. The IC50 [4] was > 5000 nM, the IC50 ([5]; Homo sapiens, A673, 72 h) was 20 to 200 nM and the IC50 [6] was > 5000 nM.

For O=S1(=O)CCn2cc(-c3nc(N[C@H]4CCCNC4)ncc3C(F)(F)F)c3cccc1c32 [Compound 348, (S)-6-(2-(piperidin-3-ylamino)-5-(trifluoromethyl)pyrimidin-4-yl)-2,3-dihydro-[1,4]thiazino[2,3,4-hi]indole 1,1-dioxide], the IC50 [1] was 20 to 200 nM, the IC50 ([1]; listed as 117) was 20 to 200 nM and the IC50 [2] was > 5000 nM. For the same molecule, the IC50 ([2]; listed as 117) was 200 to 5000 nM, the IC50 [3] was 100 to 1000 nM and the IC50 [4] was > 5000 nM. For the same molecule, the IC50 ([4]; listed as 117) was 200 to 5000 nM, the IC50 [5] was 20 to 200 nM and the IC50 [6] was > 5000 nM. It also gave an IC50 ([6]; listed as 117) of 200 to 5000 nM.

O=C1CC[C@H](Nc2ncc(Cl)c(-c3c[nH]c4ccccc34)n2)CN1 [Compound 159] was tested, and the IC50 [1] was 20 to 200 nM, the IC50 [2] was 200 to 5000 nM and the IC50 [3] was 1000 to 5000 nM. The IC50 [4] was 200 to 5000 nM, the IC50 ([5]; Homo sapiens, A673, 72 h) was 200 to 5000 nM and the IC50 [6] was 20 to 200 nM.
